ChEMBL document CHEMBL5325421, “Discovery of novel sulfonamide chromone-oxime derivatives as potent indoleamine 2,3-dioxygenase 1 inhibitors” (Eur J Med Chem, 2023)

Columns and labels:
[1] = biological target: T1, Indoleamine 2,3-dioxygenase 1 (Homo sapiens, UniProt P14902); experiment: Inhibition of human recombinant IDO1 measured after 60 mins by fluorescence based analysis
Target sequence in this assay (P14902 whole entry): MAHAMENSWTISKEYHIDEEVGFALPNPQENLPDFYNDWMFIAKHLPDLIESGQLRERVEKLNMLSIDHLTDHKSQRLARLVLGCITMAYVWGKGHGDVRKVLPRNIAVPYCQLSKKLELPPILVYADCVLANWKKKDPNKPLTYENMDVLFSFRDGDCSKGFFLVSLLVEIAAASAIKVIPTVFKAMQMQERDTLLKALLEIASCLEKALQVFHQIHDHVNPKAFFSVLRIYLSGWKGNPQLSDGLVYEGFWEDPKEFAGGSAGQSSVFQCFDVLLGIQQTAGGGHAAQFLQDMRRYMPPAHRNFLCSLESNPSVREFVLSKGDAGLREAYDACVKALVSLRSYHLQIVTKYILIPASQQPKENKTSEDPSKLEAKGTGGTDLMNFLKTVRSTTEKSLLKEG

[2] = biological target: T1, Indoleamine 2,3-dioxygenase 1; experiment: Inhibition of IDO1 in IFN-gamma treated human HeLa cells incubated for 48 hrs by absorbance based analysis; format: cell-based
Target sequence in this assay (P14902 whole entry): as above

[3] = tested on: HCT-116; experiment: cells; settings: Homo sapiens, HCT-116, 48 h
[4] = tested on: SW480; experiment: cells; settings: Homo sapiens, SW480, 48 h
[5] = tested on: A549; experiment: cells; settings: Homo sapiens, A549, 48 h
[6] = tested on: HeLa; experiment: cells; settings: Homo sapiens, 48 h
[7] = biological target: T1, Indoleamine 2,3-dioxygenase 1; experiment: Binding affinity to human recombinant IDO1 assessed as dissociation constant measured for 60 sec by SPR assay; settings: dose 0.78-25 µM
Target sequence in this assay (P14902 whole entry, looked up): as the sequence (P14902 whole entry) above

[8] = tested on: CT26; experiment: Antitumor activity against mouse CT26 cells xenografted in BALB/c mouse model assessed as relative tumor volume growth at 50 mg/kg measured every 3 days for 21 days by caliper method relative to control; format: functional; settings: time 21 day
[9] = tested on: CT26; experiment: Antitumor activity against mouse CT26 cells xenografted in BALB/c mouse model assessed as relative tumor volume growth at 100 mg/kg measured every 3 days for 21 days by caliper method relative to control; format: functional; settings: time 21 day
[10] = tested on: CT26; experiment: Antitumor activity against mouse CT26 cells xenografted in BALB/c mouse model assessed as reduction in tumor weight at 50 mg/kg measured every 3 days for 21 days by caliper method relative to control; format: functional; parameters: scale not given: the % may be the effect or the level left; settings: time 21 day
[11] = tested on: CT26; experiment: Antitumor activity against mouse CT26 cells xenografted in BALB/c mouse model assessed as reduction in tumor weight at 100 mg/kg measured every 3 days for 21 days by caliper method relative to control; format: functional; parameters: scale not given: the % may be the effect or the level left; settings: time 21 day
[12] = Toxicity in BALB/c mouse assessed as change in body weight at 50 to 100 mg/kg measured upto 22 days; format: organism-based; settings: in vivo, 528 h, dose 50-100 mg/kg, time < 22 day
[13] = Toxicity in BALB/c mouse assessed as pathological changes in heart at 50 to 100 mg/kg; format: organism-based; settings: in vivo, dose 50-100 mg/kg
[14] = Toxicity in BALB/c mouse assessed as pathological changes in liver at 50 to 100 mg/kg; format: organism-based; settings: in vivo, dose 50-100 mg/kg
[15] = Toxicity in BALB/c mouse assessed as pathological changes in spleen at 50 to 100 mg/kg; format: organism-based; settings: in vivo, dose 50-100 mg/kg
[16] = Toxicity in BALB/c mouse assessed as pathological changes in lungs at 50 to 100 mg/kg; format: organism-based; settings: in vivo, dose 50-100 mg/kg
[17] = Toxicity in BALB/c mouse assessed as pathological changes in kidney at 50 to 100 mg/kg; format: organism-based; settings: in vivo, dose 50-100 mg/kg
[18] = biological target: T1, Indoleamine 2,3-dioxygenase 1; experiment: Binding affinity to human recombinant IDO1 heme iron assessed as shift in soret peak at 2 mM by UV-visible spectroscopic analysis (reference value: […])
Target sequence in this assay (P14902 whole entry, looked up): as the sequence (P14902 whole entry) above

[19] = biological target: T1, Indoleamine 2,3-dioxygenase 1; experiment: Binding affinity to human recombinant IDO1 assessed as dissociation rate constant measured for 60 sec by SPR assay
Target sequence in this assay (P14902 whole entry): as above

[20] = Toxicity in BALB/c mouse assessed as change in body weight at 100 mg/kg measured upto 22 days; format: organism-based; settings: in vivo, 528 h, time < 22 day

Row | Compound | IC50 [1] [µM] | IC50 [2] [µM] | IC50 [3] [µM] | IC50 [4] [µM] | IC50 [5] [µM] | IC50 [6] [µM] | further results
1 | COc1ccc2/c(=N/O)cc(C(=O)N3CCN(S(=O)(=O)c4ccccc4Cl)CC3)oc2c1 | > 10 | > 10 | > 50 | > 50 | > 50 | > 50 | –
2 | COc1ccc2/c(=N/O)cc(C(=O)N3CCN(S(=O)(=O)c4cccc([N+](=O)[O-])c4)CC3)oc2c1 | 1.95 | 4.46 | 19.4 | > 50 | > 50 | > 50 | –
3 | COc1ccc2/c(=N/O)cc(C(=O)N3CCN(S(=O)(=O)c4ccccc4C)CC3)oc2c1 | > 10 | > 10 | 23.5 | > 50 | > 50 | > 50 | –
4 | COc1ccc2/c(=N/O)cc(C(=O)N3CCN(S(=O)(=O)c4ccc(F)c(F)c4)CC3)oc2c1 | 0.64 | 1.04 | > 50 | 28.6 | > 50 | > 50 | Activity [7]: Dose-Dependent Effect; Activity [8]: 63.52%; Activity [9]: 38.01%; Activity [10]: 36.2%; Activity [11]: 60.4%; Activity [12]: Non-Toxic; Activity [13]: Non-Toxic; Activity [14]: Non-Toxic; Activity [15]: Non-Toxic; Activity [16]: Non-Toxic; Activity [17]: Non-Toxic; Activity [18]: 421 nm; koff [19]: 0.11 s⁻¹
5 | Cn1cc(C[C@H](N)C(=O)O)c2ccccc21 [(L)-1-METHYLTRYPTOPHAN] | – | – | – | – | – | – | Activity [11]: 45.6%; Activity [20]: Non-Toxic
6 | Nc1nonc1C(=NO)Nc1ccc(F)c(Cl)c1 | – | – | – | – | – | – | Activity [9]: 26.05%; Activity [11]: 70.9%; Activity [20]: Non-Toxic
7 | NS(=O)(=O)NCCNc1nonc1/C(=N/O)Nc1ccc(F)c(Br)c1 [EPACADOSTAT] | – | – | > 50 | > 50 | > 50 | > 50 | –
8 | Cc1ccc2/c(=N/O)cc(C(=O)N3CCN(S(=O)(=O)c4ccc(F)cc4)CC3)oc2c1 | 9.18 | 9.29 | 34.8 | 31.2 | > 50 | > 50 | –
9 | Cc1ccc2/c(=N/O)cc(C(=O)N3CCN(S(=O)(=O)c4ccc(Br)cc4)CC3)oc2c1 | > 10 | > 10 | 28.3 | > 50 | 46.1 | > 50 | –
10 | COc1ccc2/c(=N/O)cc(C(=O)N3CCN(S(=O)(=O)c4ccccc4C(F)(F)F)CC3)oc2c1 | 8.85 | > 10 | > 50 | > 50 | > 50 | 38 | –
11 | Cc1ccc2/c(=N/O)cc(C(=O)N3CCN(S(=O)(=O)c4cccc([N+](=O)[O-])c4)CC3)oc2c1 | 7.52 | 8.84 | 6.44 | 17.1 | > 50 | 29.4 | –
12 | COc1ccc2/c(=N/O)cc(C(=O)N3CCN(S(=O)(=O)c4cccc(Br)c4)CC3)oc2c1 | 6.14 | 9.81 | > 50 | > 50 | > 50 | 44.8 | –
13 | COc1ccc2/c(=N/O)cc(C(=O)N3CCN(S(=O)(=O)c4cccc(F)c4)CC3)oc2c1 | 2.38 | 4.13 | > 50 | > 50 | > 50 | 42.8 | –
14 | COc1ccc2/c(=N/O)cc(C(=O)N3CCN(S(=O)(=O)c4ccc(C(F)(F)F)cc4)CC3)oc2c1 | 2.69 | 6.37 | > 50 | > 50 | > 50 | > 50 | –
15 | COc1ccc(S(=O)(=O)N2CCN(C(=O)c3c/c(=N\O)c4ccc(C)cc4o3)CC2)cc1OC | 6.23 | 7.8 | > 50 | > 50 | > 50 | > 50 | –
16 | COc1ccc2/c(=N/O)cc(C(=O)N3CCN(S(=O)(=O)c4ccc(OC)c(OC)c4)CC3)oc2c1 | 0.92 | 1.68 | 47.8 | > 50 | > 50 | 34 | –
17 | Cc1ccc2/c(=N/O)cc(C(=O)N3CCN(S(=O)(=O)c4ccc(F)c(F)c4)CC3)oc2c1 | 5.59 | 5.75 | 4.18 | 27.6 | > 50 | > 50 | –
18 | COc1ccc2/c(=N/O)cc(C(=O)N3CCN(S(=O)(=O)c4ccc(Cl)c(Cl)c4)CC3)oc2c1 | 3.73 | 7.61 | > 50 | > 50 | > 50 | > 50 | –

More lines, main results first:

Row | IC50 [1] [µM] | IC50 [2] [µM] | IC50 [3] [µM] | IC50 [4] [µM] | IC50 [5] [µM] | IC50 [6] [µM] | Compound | further results
19 | 9.42 | > 10 | 18.5 | > 50 | > 50 | > 50 | COc1ccc2/c(=N/O)cc(C(=O)N3CCN(S(=O)(=O)c4ccc(Br)cc4)CC3)oc2c1 | –
20 | 7.07 | 7.78 | 42 | 11.6 | > 50 | > 50 | COc1ccc2/c(=N/O)cc(C(=O)N3CCN(S(=O)(=O)c4ccc(Cl)cc4)CC3)oc2c1 | –
21 | > 10 | > 10 | 15.2 | > 50 | > 50 | > 50 | Cc1ccc2/c(=N/O)cc(C(=O)N3CCN(S(=O)(=O)c4ccc(Cl)cc4)CC3)oc2c1 | –
22 | > 10 | > 10 | 31.1 | 33.1 | 36.9 | 20.1 | COc1ccc2/c(=N/O)cc(C(=O)N3CCN(S(=O)(=O)c4ccc(C)cc4)CC3)oc2c1 | –
23 | 3.58 | 5.66 | > 50 | > 50 | > 50 | 30.1 | COc1ccc2/c(=N/O)cc(C(=O)N3CCN(S(=O)(=O)c4ccc([N+](=O)[O-])cc4)CC3)oc2c1 | –
24 | 6.35 | 8.52 | 29.5 | 39.2 | > 50 | 36.8 | COc1ccc(S(=O)(=O)N2CCN(C(=O)c3c/c(=N\O)c4ccc(OC)cc4o3)CC2)cc1 | –
25 | 5.72 | 7.23 | > 50 | 12.4 | > 50 | > 50 | COc1ccc2/c(=N/O)cc(C(=O)N3CCN(S(=O)(=O)c4ccc(F)cc4)CC3)oc2c1 | –
26 | 9.45 | > 10 | 1.48 | 17.6 | 41.4 | > 50 | COc1ccc(S(=O)(=O)N2CCN(C(=O)c3c/c(=N\O)c4ccc(C)cc4o3)CC2)cc1 | –
